Laboratory results: patent publication US20240325398A1, “COMBINATION THERAPIES” (Infinity Pharmaceuticals, Inc., priority 2014, published 2024)

Columns and labels:
Jeko-1 = experiment: Combination study, ATPLite 72 h, dose matrix (Synergy Score, CI50); settings: combination with Compound 1
Mino = experiment: as above; settings: combination with Compound 1
Description: (§1) Cells are thawed from a liquid nitrogen preserved state. Once cells have been expanded and divide at their expected doubling times, screening begins. Cells are seeded in growth media in either black 1536-well or 384-well tissue culture treated plates. Cells are then equilibrated in assay plates via centrifugation and placed in incubators attached to the Dosing Modules at 37° C. for 24 hours before treatment. […] These Tzero (To) plates are read using ultra-sensitive luminescence on Envision plate readers (Perkin Elmer). Treated assay plates are incubated with compound for 72 hours. After 72 hours, plates are developed for endpoint analysis using ATPLite. All data points are collected via automated processes, quality controlled and analyzed using Zalicus software.
(§2) where T is treated cell count and V is untreated (vehicle) cell count (at 72 hours). I ranges from 0% (when T=V) to 100% (when T=0). […] The measure of effect in the experiment can be the inhibition of cellular response relative to the untreated level (vehicle alone). […] The inhibition ranges from 0% at the untreated level to 100% when T=0. Inhibition levels are negative for agents that actually increase levels. Other effect measures, such as an activity ratio r=T/V may be more appropriate for some assays. When activity ratios (e.g, fold increase over stimulated control) are being used, the effect can be measured using an induction 1=ln(T/V). With this definition, all effect expressions are the same as for inhibition.
(§3) Growth Inhibition (GI) is used as a measure of cell viability. […] A GI reading of 100% represents complete growth inhibition—T72 compound-treated and T0 vehicle signals are matched. […] A GI reading of 200% represents complete death of all cells in the culture well. Compounds reaching an activity plateau of GI 200% are considered cytotoxic. GI is calculated by applying the following test and equation:
(§4) Combination analysis data were collected in a 6×6 dose matrix. Synergy is calculated by comparing a combination's response to those of its single compound, against the drug-with-itself dose-additive reference model. Deviations from dose additivity may be assessed visually on an isobologram or numerically with a Combination Index (CI). […] Additive effect is CI=1.0. […] Antagonistic effect is CI>1.0.
(§5) To measure combination effects in excess of Loewe additivity, a scalar measure to characterize the strength of synergistic interaction termed the Synergy Score is devised. The Synergy Score is calculated as:
(§6) The fractional inhibition for each component agent and combination point in the matrix is calculated relative to the median of all vehicle-treated control wells. The Synergy Score equation integrates the experimentally-observed activity volume at each point in the matrix in excess of a model surface numerically derived from the activity of the component agents using the Loewe model for additivity. Additional terms in the Synergy Score equation (above) are used to normalize for various dilution factors used for individual agents and to allow for comparison of synergy scores across an entire experiment. The inclusion of positive inhibition gating or an Idata multiplier removes noise near the zero effect level, and biases results for synergistic interactions at that occur at high activity levels.
(§7) Loewe Volume (Loewe Vol) is used to assess the overall magnitude of the combination interaction in excess of the Loewe additivity model. Loewe Volume is particularly useful when distinguishing synergistic increases in a phenotypic activity (positive Loewe Volume) versus synergistic antagonisms (negative Loewe Volume). […] This model defines additivity as a non-synergistic combination interaction where the combination dose matrix surface should be indistinguishable from either drug crossed with itself.

OCI-Ly3 = experiment: as above; settings: combination with Compound 1; OCI-Ly3; 72 h
Description: as §1, §2, §3, §4, §5, §6
(§8) Loewe Volume (Loewe Vol) is used to assess the overall magnitude of the combination interaction in excess of the Loewe additivity model. Loewe Volume is particularly useful when distinguishing synergistic increases in a phenotypic activity (positive Loewe Volume) versus synergistic antagonisms (negative Loewe Volume). […] This model defines additivity as a non-synergistic combination interaction where the combination dose matrix surface should be indistinguishable from either drug crossed with itself. The calculation for Loewe additivity is:

SU-DHL-4-epst = experiment: as above; settings: combination with Compound 1, 72 h
KARPAS-299 = experiment: as above; settings: combination with Compound 1
Description: as §1, §2, §3, §4, §5, §6, §7

OCI-Ly7 = experiment: as above; settings: combination with Compound 1, 72 h
Description: as §1
(§9) The measure of effect in the experiment can be the inhibition of cellular response relative to the untreated level (vehicle alone). […] The inhibition ranges from 0% at the untreated level to 100% when T=0. Inhibition levels are negative for agents that actually increase levels.
as §3, §4, §5, §6, §8

KARPAS-422 = experiment: as above; settings: combination with Compound 1, 72 h
TMD8 = experiment: as above; settings: combination with Compound 1; for CI50 growth inhibition / CI50 inhibition / Synergy Score growth inhibition / Synergy Score inhibition: TMD8, 72 h
Description: as §1, §2, §3, §4
The isobologram was drawn by identifying the locus of concentrations that correspond to crossing the indicated inhibition level. This is done by finding the crossing point for each single agent concentration in a dose matrix across the concentrations of the other single agent. Practically, each vertical concentration CY is held fixed while a bisection algorithm is used to identify the horizontal concentration CX in combination with that vertical dose that gives the chosen effect level in the response surface Z(CX,CY). These concentrations are then connected by linear interpolation to generate the isobologram display. For synergistic interactions, the isobologram contour fall below the additivity threshold and approaches the origin, and an antagonistic interaction would lie above the additivity threshold. The error bars represent the uncertainty arising from the individual data points used to generate the isobologram. The uncertainty for each crossing point is estimated from the response errors using bisection to find the concentrations where Z−αZ(CX,CY) and Z+σZ(CX,CY) cross Icut, where αZ is the standard deviation of the residual error on the effect scale.
as §5
The fractional inhibition for each component agent and combination point in the matrix is calculated relative to the median of all vehicle-treated control wells.

RL = experiment: as above; settings: combination with Compound 1, 72 h
Farage = experiment: as above; settings: combination with Compound 1; Farage; 72 h
SU-DHL-10-epst = experiment: as above; settings: combination with Compound 1, 72 h
Description: as §1, §9, §3, §4, §5, §6, §8

DOHH-2 = experiment: as above; settings: combination with Compound 1, 72 h
HBL-1 = experiment: as above; settings: combination with Compound 1, 72 h
U-2932 = experiment: as above; settings: combination with Compound 1, 72 h
HH = experiment: as above; assay type: cell-based; settings: combination with Compound 1
Description: The method is described as follows.
Additive effect is CI=1.0. […] Antagonistic effect is CI>1.0.
The Synergy Score is calculated as: […]

NCI-H929 = experiment: as above; settings: combination with Compound 1
OMP-2 = experiment: as above; settings: combination with Compound 1; OPM-2
[1] = as above; settings: combination with Compound 1; OPM-2
RPMI-8226 = experiment: as above; settings: combination with Compound 1
WSU-NHL = experiment: as above; settings: combination with Compound 1, 72 h
GRANTA-519 = experiment: as above; settings: combination with Compound 1

CC(C)C[C@H](NC(=O)[C@H](CCc1ccccc1)NC(=O)CN1CCOCC1)C(=O)N[C@@H](Cc1ccccc1)C(=O)N[C@@H](CC(C)C)C(=O)[C@@]1(C)CO1 [carfilzomib, (S)-4-methyl-N—((S)-1-(((S)-4-methyl-1-((R)-2-methyloxiran-2-yl)-1-oxopentan-2-yl)amino)-1-oxo-3-phenylpropan-2-yl)-2-((S)-2-(2-morpholinoacetamido)-4-phenylbutanamido)pentanamide]
CI50 growth inhibition (Jeko-1): U (U=0.7 to <1)
CI50 inhibition (Jeko-1): U (U=0.7 to <1)
Synergy Score growth inhibition (Jeko-1): A1 (A1=0.0001 to <1)
Synergy Score inhibition (Jeko-1): A1 (A1=0.0001 to <1)
CI50 growth inhibition (Mino): U (U=0.7 to <1)
CI50 inhibition (Mino): U (U=0.7 to <1)
Synergy Score growth inhibition (Mino): A2 (A2=1 to <3)
Synergy Score inhibition (Mino): A1 (A1=0.0001 to <1)
CI50 growth inhibition (OCI-Ly3): U (U=0.7 to <1)
CI50 inhibition (OCI-Ly3): W (W=≥1)
Synergy Score growth inhibition (OCI-Ly3): A2 (A2=1 to <3)
Synergy Score inhibition (OCI-Ly3): A1 (A1=0.0001 to <1)
CI50 growth inhibition (SU-DHL-4-epst): U (U=0.7 to <1)
CI50 inhibition (SU-DHL-4-epst): U (U=0.7 to <1)
Synergy Score growth inhibition (SU-DHL-4-epst): A3 (A3=>3)
Synergy Score inhibition (SU-DHL-4-epst): A2 (A2=1 to <3)
CI50 growth inhibition (KARPAS-299): W (W=≥1)
CI50 inhibition (KARPAS-299): W (W=≥1)
Synergy Score growth inhibition (KARPAS-299): A1 (A1=0.0001 to <1)
Synergy Score inhibition (KARPAS-299): A1 (A1=0.0001 to <1)
CI50 growth inhibition (OCI-Ly7): W (W=≥1)
CI50 inhibition (OCI-Ly7): W (W=≥1)
Synergy Score growth inhibition (OCI-Ly7): A2 (A2=1 to <3)
Synergy Score inhibition (OCI-Ly7): A1 (A1=0.0001 to <1)
CI50 growth inhibition (KARPAS-422): T (T=0.5 to <0.7)
CI50 inhibition (KARPAS-422): U (U=0.7 to <1)
Synergy Score growth inhibition (KARPAS-422): A3 (A3=>3)
Synergy Score inhibition (KARPAS-422): A1 (A1=0.0001 to <1)
CI50 growth inhibition (TMD8): U (U=0.7 to <1)
CI50 inhibition (TMD8): U (U=0.7 to <1)
Synergy Score growth inhibition (TMD8): A3 (A3=>3)
Synergy Score inhibition (TMD8): A2 (A2=1 to <3)
CI50 growth inhibition (RL): W (W=≥1)
CI50 inhibition (RL): W (W=≥1)
Synergy Score growth inhibition (RL): A1 (A1=0.0001 to <1)
Synergy Score inhibition (RL): A1 (A1=0.0001 to <1)
CI50 growth inhibition (Farage): U (U=0.7 to <1)
CI50 inhibition (Farage): U (U=0.7 to <1)
Synergy Score growth inhibition (Farage): A3 (A3=>3)
Synergy Score inhibition (Farage): A1 (A1=0.0001 to <1)
CI50 growth inhibition (SU-DHL-10-epst): U (U=0.7 to <1)
CI50 inhibition (SU-DHL-10-epst): U (U=0.7 to <1)
Synergy Score growth inhibition (SU-DHL-10-epst): A3 (A3=>3)
Synergy Score inhibition (SU-DHL-10-epst): A2 (A2=1 to <3)
CI50 growth inhibition (DOHH-2): U (U=0.7 to <1)
CI50 inhibition (DOHH-2): U (U=0.7 to <1)
Synergy Score growth inhibition (DOHH-2): A3 (A3=>3)
Synergy Score inhibition (DOHH-2): A1 (A1=0.0001 to <1)
CI50 growth inhibition (HBL-1): T (T=0.5 to <0.7)
CI50 inhibition (HBL-1): U (U=0.7 to <1)
Synergy Score growth inhibition (HBL-1): A1 (A1=0.0001 to <1)
Synergy Score inhibition (HBL-1): A1 (A1=0.0001 to <1)
CI50 growth inhibition (U-2932): U (U=0.7 to <1)
CI50 inhibition (U-2932): U (U=0.7 to <1)
Synergy Score growth inhibition (U-2932): A2 (A2=1 to <3)
Synergy Score inhibition (U-2932): A2 (A2=1 to <3)
CI50 growth inhibition (HH): T (T=0.5 to <0.7)
CI50 inhibition (HH): T (T=0.5 to <0.7)
Synergy Score growth inhibition (HH): A3 (A3=>3)
Synergy Score inhibition (HH): A1 (A1=0.0001 to <1)
CI50 growth inhibition (NCI-H929): U (U=0.7 to <1)
CI50 inhibition (NCI-H929): W (W=≥1)
Synergy Score growth inhibition (NCI-H929): A3 (A3=>3)
Synergy Score inhibition (NCI-H929): A1 (A1=0.0001 to <1)
CI50 inhibition (OMP-2): U (U=0.7 to <1)
Synergy Score growth inhibition (OMP-2): A2 (A2=1 to <3)
Synergy Score inhibition (OMP-2): A1 (A1=0.0001 to <1)
CI50 growth inhibition [1]: U (U=0.7 to <1)
CI50 growth inhibition (RPMI-8226): U (U=0.7 to <1)
CI50 inhibition (RPMI-8226): W (W=≥1)
Synergy Score growth inhibition (RPMI-8226): A3 (A3=>3)
Synergy Score inhibition (RPMI-8226): A1 (A1=0.0001 to <1)
CI50 growth inhibition (WSU-NHL): U (U=0.7 to <1)
CI50 inhibition (WSU-NHL): U (U=0.7 to <1)
Synergy Score growth inhibition (WSU-NHL): A2 (A2=1 to <3)
Synergy Score inhibition (WSU-NHL): A1 (A1=0.0001 to <1)
CI50 growth inhibition (GRANTA-519): T (T=0.5 to <0.7)
CI50 inhibition (GRANTA-519): W (W=≥1)
Synergy Score growth inhibition (GRANTA-519): A2 (A2=1 to <3)
Synergy Score inhibition (GRANTA-519): A1 (A1=0.0001 to <1)

CC(=O)Nc1cccc(-n2c(=O)n(C3CC3)c(=O)c3c(Nc4ccc(I)cc4F)n(C)c(=O)c(C)c32)c1 [trametinib, N-(3-{3-cyclopropyl-5-[(2-fluoro-4-iodophenyl)amino]-6,8-dimethyl-2,4,7-trioxo-3,4,6,7-tetrahydropyrido[4,3-d]pyrimidin-1(2H)-yl}phenyl)acetamide]
CI50 growth inhibition (Jeko-1): U (U=0.7 to <1)
CI50 inhibition (Jeko-1): W (W=≥1)
Synergy Score growth inhibition (Jeko-1): A1 (A1=0.0001 to <1)
Synergy Score inhibition (Jeko-1): A1 (A1=0.0001 to <1)
CI50 growth inhibition (Mino): S (S=0.01 to <0.5)
CI50 inhibition (Mino): S (S=0.01 to <0.5)
Synergy Score growth inhibition (Mino): A3 (A3=>3)
Synergy Score inhibition (Mino): A3 (A3=>3)
CI50 growth inhibition (OCI-Ly3): W (W=≥1)
Synergy Score growth inhibition (OCI-Ly3): A2 (A2=1 to <3)
Synergy Score inhibition (OCI-Ly3): A1 (A1=0.0001 to <1)
CI50 growth inhibition (SU-DHL-4-epst): S (S=0.01 to <0.5)
CI50 inhibition (SU-DHL-4-epst): S (S=0.01 to <0.5)
Synergy Score growth inhibition (SU-DHL-4-epst): A3 (A3=>3)
Synergy Score inhibition (SU-DHL-4-epst): A2 (A2=1 to <3)
Synergy Score growth inhibition (KARPAS-299): A1 (A1=0.0001 to <1)
Synergy Score inhibition (KARPAS-299): A1 (A1=0.0001 to <1)
Synergy Score growth inhibition (OCI-Ly7): A1 (A1=0.0001 to <1)
Synergy Score inhibition (OCI-Ly7): A1 (A1=0.0001 to <1)
CI50 growth inhibition (KARPAS-422): S (S=0.01 to <0.5)
CI50 inhibition (KARPAS-422): S (S=0.01 to <0.5)
Synergy Score growth inhibition (KARPAS-422): A2 (A2=1 to <3)
Synergy Score inhibition (KARPAS-422): A2 (A2=1 to <3)
CI50 growth inhibition (TMD8): S (S=0.01 to <0.5)
CI50 inhibition (TMD8): S (S=0.01 to <0.5)
Synergy Score growth inhibition (TMD8): A3 (A3=>3)
Synergy Score inhibition (TMD8): A3 (A3=>3)
effect of the combination (isobologram) (TMD8; TMD8 DLBCL cell line, FIG. 1-3): synergistic effect
Synergy Score growth inhibition (RL): A1 (A1=0.0001 to <1)
Synergy Score inhibition (RL): A1 (A1=0.0001 to <1)
CI50 growth inhibition (Farage): W (W=≥1)
CI50 inhibition (Farage): U (U=0.7 to <1)
Synergy Score growth inhibition (Farage): A2 (A2=1 to <3)
Synergy Score inhibition (Farage): A2 (A2=1 to <3)
CI50 growth inhibition (SU-DHL-10-epst): S (S=0.01 to <0.5)
CI50 inhibition (SU-DHL-10-epst): S (S=0.01 to <0.5)
Synergy Score growth inhibition (SU-DHL-10-epst): A3 (A3=>3)
Synergy Score inhibition (SU-DHL-10-epst): A3 (A3=>3)
CI50 growth inhibition (DOHH-2): U (U=0.7 to <1)
CI50 inhibition (DOHH-2): W (W=≥1)
Synergy Score growth inhibition (DOHH-2): A3 (A3=>3)
Synergy Score inhibition (DOHH-2): A2 (A2=1 to <3)
CI50 growth inhibition (HBL-1): U (U=0.7 to <1)
Synergy Score growth inhibition (HBL-1): A2 (A2=1 to <3)
Synergy Score inhibition (HBL-1): A1 (A1=0.0001 to <1)
CI50 growth inhibition (U-2932): U (U=0.7 to <1)
Synergy Score growth inhibition (U-2932): A1 (A1=0.0001 to <1)
Synergy Score inhibition (U-2932): A1 (A1=0.0001 to <1)
CI50 growth inhibition (HH): S (S=0.01 to <0.5)
CI50 inhibition (HH): S (S=0.01 to <0.5)
Synergy Score growth inhibition (HH): A3 (A3=>3)
Synergy Score inhibition (HH): A2 (A2=1 to <3)
CI50 growth inhibition (NCI-H929): T (T=0.5 to <0.7)
CI50 inhibition (NCI-H929): S (S=0.01 to <0.5)
Synergy Score growth inhibition (NCI-H929): A3 (A3=>3)
Synergy Score inhibition (NCI-H929): A2 (A2=1 to <3)
CI50 inhibition (OMP-2): W (W=≥1)
Synergy Score growth inhibition (OMP-2): A2 (A2=1 to <3)
Synergy Score inhibition (OMP-2): A2 (A2=1 to <3)
CI50 growth inhibition [1]: T (T=0.5 to <0.7)
CI50 growth inhibition (RPMI-8226): U (U=0.7 to <1)
Synergy Score growth inhibition (RPMI-8226): A2 (A2=1 to <3)
Synergy Score inhibition (RPMI-8226): A1 (A1=0.0001 to <1)
CI50 growth inhibition (WSU-NHL): T (T=0.5 to <0.7)
CI50 inhibition (WSU-NHL): S (S=0.01 to <0.5)
Synergy Score growth inhibition (WSU-NHL): A3 (A3=>3)
Synergy Score inhibition (WSU-NHL): A3 (A3=>3)
CI50 growth inhibition (GRANTA-519): S (S=0.01 to <0.5)
Synergy Score growth inhibition (GRANTA-519): A2 (A2=1 to <3)
Synergy Score inhibition (GRANTA-519): A1 (A1=0.0001 to <1)
